Laboratory results reported in patent US20260041679A1, “METHOD OF TREATING HYPERTENSION WITH THE ALDOSTERONE SYNTHASE INHIBITOR BAXDROSTAT” (CINCOR PHARMA, INC., priority 2022, published 2026).
Read-outs that look alike come from different tables or passages of the source. Marks after values point to notes of the source that are not given here.

Assay: Pharmacokinetics in subjects with varying degrees of renal function (Example 4)
Type: in vivo, human
Conditions: for half-life / Tmax / AUC(0-inf) / AUC(0-t) / Cmax / Vd/F: human, plasma, oral, 10 mg; for AUC(0-inf): read-out: AUC0-inf, mean (SD); for AUC(0-t): read-out: AUC0-last, mean (SD); for Cmax: read-out: Cmax, mean (SD); for Vd/F: read-out: Vz/F, mean (SD)
Procedure: This phase 1, open-label, single-dose, parallel-group study was designed in accordance with the FDA guidance for the design and analysis of studies that assess the influence of impaired renal function on PK. Subjects were enrolled into three renal function groups defined based on eGFR calculated using the Chronic Kidney Disease Epidemiology Collaboration equation as follows: […]
Control(normal renal function or mild renal impairment:eGFR≥60 mL/min) • Moderate to severe renal impairment (eGFR 15 to 59 mL/min) • Kidney failure (eGFR<15 mL/min, including subjects on dialysis)
All subjects received a single 10 mg dose of baxdrostat in an open-label manner. […] All subjects were required to fast for a minimum of 10 hours prior to baxdrostat administration. They were then dosed at 8:00 AM (±2 hours) with two 5 mg tablets administered with approximately 240 mL of water. Subjects continued fasting for a minimum of 4 hours after dosing. No other medications were permitted within 2 hours prior to dosing and for 2 hours after dosing with baxdrostat. Subjects on dialysis received the study drug on a non-dialysis day. Blood and urine sample collection for PK analysis continued for 7 days and was proceeded by a follow-up phone call 3±1 days after clinic discharge.
Plasma and urine samples were analyzed to measure concentrations of baxdrostat and its primary metabolite (baxdrostat-M) using a validated LC-MS/MS method. “Baxdrostat-M” as used herein refers a compound having the following structure:
Blood and urine samples were collected prior to and after dosing for measurement of plasma and urine baxdrostat and baxdrostat-M concentrations to characterize maximum observed plasma concentration (Cmax), time to Cmax (Tmax), AUC0-last, and AUC0-inf for baxdrostat and baxdrostat-M. The t1/2, CL/F, and V/F were calculated for plasma baxdrostat only. Urine PK parameters included the cumulative amount of baxdrostat and baxdrostat-M excreted in urine (Ae), renal clearance (CLR) of baxdrostat and baxdrostat-M, and fraction of dose excreted renally (Fe) for baxdrostat.

[1] = control eGFR ≥60 mL/min, single 10 mg
[2] = kidney failure eGFR <15 mL/min, single 10 mg
[3] = moderate to severe renal impairment eGFR 15-59 mL/min, single 10 mg

CCC(=O)N[C@@H]1CCCc2c(-c3ccc4c(c3)CCC(=O)N4C)cncc21 [baxdrostat, (R)—N-(4-(1-methyl-2-oxo-1,2,3,4-tetrahydroquinolin-6-yl)-5,6,7,8-tetrahydroisoquinolin-8-yl) propionamide]
recovered unchanged in the urine (control and moderate to severe renal impairment groups): Approximately 12%
CL/F, mean (SD) [1]: 3.06 (0.9) L/h
Fe (urine), mean (CV %) [1]: 12.53 (38.1) %
half-life (across renal function groups, read-out: average half-life): 30 to 42 h
Tmax (all renal function groups, single 10 mg, read-out: median Tmax): ≤ 1.5 h
AUC(0-inf) [1]: 3530 ng·h/mL
AUC(0-t) [1]: 3380 ng·h/mL
Cmax [1]: 108 ng/mL
Tmax (control eGFR ≥60 mL/min, single 10 mg, read-out: Tmax, mean (SD)): 2.1 h
Vd/F [1]: 146 L
half-life (control eGFR ≥60 mL/min, single 10 mg, read-out: t1/2, mean (SD) (converted)): 35.6 h
AUC(0-inf) [2]: 2660 ng·h/mL
AUC(0-t) [2]: 2570 ng·h/mL
Cmax [2]: 96 ng/mL
Tmax (kidney failure eGFR <15 mL/min, single 10 mg, read-out: Tmax, mean (SD)): 1.63 h
Vd/F [2]: 200 L
AUC(0-inf) [3]: 4340 ng·h/mL
AUC(0-t) [3]: 4010 ng·h/mL
Cmax [3]: 110 ng/mL
Tmax (moderate to severe renal impairment eGFR 15-59 mL/min, single 10 mg, read-out: Tmax, mean (SD)): 1.82 h
Vd/F [3]: 142 L
half-life (moderate to severe renal impairment eGFR 15-59 mL/min, single 10 mg, read-out: t1/2, mean (SD) (converted)): 42.1 h
CL/F, mean (SD) [2]: 5.07 (2.9) L/h
Fe (urine), mean (CV %) [2]: 0.91 (60.7)* %
t1/2, mean (SD) [2]: 29.70 (10.5) h
renal excretion (kidney failure group): minimal renal excretion
CL/F, mean (SD) [3]: 2.60 (1.0) L/h
Fe (urine), mean (CV %) [3]: 11.81 (26.0) %
effect of renal impairment on Cmax, AUC, half-life, apparent plasma clearance, renal clearance (pairwise comparisons versus control): no meaningful effect
